BindingDB's records for patent US20250145642 (Kineta, 2025)

Target: T1, 1-phosphatidylinositol 3-phosphate 5-kinase [S696N,L932S,Q995L,T998S,S1033A,Q1183K] (Homo sapiens, UniProt Q9Y2I7, L932S/Q1183K/Q995L/S1033A/S696N/T998S)
T1 construct: gene PIKFYVE
Assay: PIKfyve Biochemical Assay
Description: The biochemical PIKfyve inhibition assays were run by Carna Biosciences according to proprietary methodology based on the Promega ADP-Glo™ Kinase assay. […] GST-PIKFYVE was purified by using glutathione sepharose chromatography and used in an ADP-Glo™ Kinase assay (Promega). Reactions were set up by adding the test compound solution, substrate solution, ATP solution and kinase solution, each at 4× final concentrations. Reactions were prepared with assay buffer (50 mM MOPS, 1 mM DTT, pH7.2), mixed, and incubated in black 384 well polystyrene plates for 1 hour at room temperature. ADP-Glo™ reagent was then added for 40 minutes, followed by kinase detection reagent for an additional 40 minutes. The kinase activity was evaluated by detecting relative light units on a luminescence plate reader. Samples were run in duplicate from 10 μM to 3 nM. […] IC50 values were calculated from concentration vs % inhibition curves by fitting to a four-parameter logistic curve.

T1 sequence (Q9Y2I7 2-2098 S696N/L932S/Q995L/T998S/S1033A/Q1183K limits assumed): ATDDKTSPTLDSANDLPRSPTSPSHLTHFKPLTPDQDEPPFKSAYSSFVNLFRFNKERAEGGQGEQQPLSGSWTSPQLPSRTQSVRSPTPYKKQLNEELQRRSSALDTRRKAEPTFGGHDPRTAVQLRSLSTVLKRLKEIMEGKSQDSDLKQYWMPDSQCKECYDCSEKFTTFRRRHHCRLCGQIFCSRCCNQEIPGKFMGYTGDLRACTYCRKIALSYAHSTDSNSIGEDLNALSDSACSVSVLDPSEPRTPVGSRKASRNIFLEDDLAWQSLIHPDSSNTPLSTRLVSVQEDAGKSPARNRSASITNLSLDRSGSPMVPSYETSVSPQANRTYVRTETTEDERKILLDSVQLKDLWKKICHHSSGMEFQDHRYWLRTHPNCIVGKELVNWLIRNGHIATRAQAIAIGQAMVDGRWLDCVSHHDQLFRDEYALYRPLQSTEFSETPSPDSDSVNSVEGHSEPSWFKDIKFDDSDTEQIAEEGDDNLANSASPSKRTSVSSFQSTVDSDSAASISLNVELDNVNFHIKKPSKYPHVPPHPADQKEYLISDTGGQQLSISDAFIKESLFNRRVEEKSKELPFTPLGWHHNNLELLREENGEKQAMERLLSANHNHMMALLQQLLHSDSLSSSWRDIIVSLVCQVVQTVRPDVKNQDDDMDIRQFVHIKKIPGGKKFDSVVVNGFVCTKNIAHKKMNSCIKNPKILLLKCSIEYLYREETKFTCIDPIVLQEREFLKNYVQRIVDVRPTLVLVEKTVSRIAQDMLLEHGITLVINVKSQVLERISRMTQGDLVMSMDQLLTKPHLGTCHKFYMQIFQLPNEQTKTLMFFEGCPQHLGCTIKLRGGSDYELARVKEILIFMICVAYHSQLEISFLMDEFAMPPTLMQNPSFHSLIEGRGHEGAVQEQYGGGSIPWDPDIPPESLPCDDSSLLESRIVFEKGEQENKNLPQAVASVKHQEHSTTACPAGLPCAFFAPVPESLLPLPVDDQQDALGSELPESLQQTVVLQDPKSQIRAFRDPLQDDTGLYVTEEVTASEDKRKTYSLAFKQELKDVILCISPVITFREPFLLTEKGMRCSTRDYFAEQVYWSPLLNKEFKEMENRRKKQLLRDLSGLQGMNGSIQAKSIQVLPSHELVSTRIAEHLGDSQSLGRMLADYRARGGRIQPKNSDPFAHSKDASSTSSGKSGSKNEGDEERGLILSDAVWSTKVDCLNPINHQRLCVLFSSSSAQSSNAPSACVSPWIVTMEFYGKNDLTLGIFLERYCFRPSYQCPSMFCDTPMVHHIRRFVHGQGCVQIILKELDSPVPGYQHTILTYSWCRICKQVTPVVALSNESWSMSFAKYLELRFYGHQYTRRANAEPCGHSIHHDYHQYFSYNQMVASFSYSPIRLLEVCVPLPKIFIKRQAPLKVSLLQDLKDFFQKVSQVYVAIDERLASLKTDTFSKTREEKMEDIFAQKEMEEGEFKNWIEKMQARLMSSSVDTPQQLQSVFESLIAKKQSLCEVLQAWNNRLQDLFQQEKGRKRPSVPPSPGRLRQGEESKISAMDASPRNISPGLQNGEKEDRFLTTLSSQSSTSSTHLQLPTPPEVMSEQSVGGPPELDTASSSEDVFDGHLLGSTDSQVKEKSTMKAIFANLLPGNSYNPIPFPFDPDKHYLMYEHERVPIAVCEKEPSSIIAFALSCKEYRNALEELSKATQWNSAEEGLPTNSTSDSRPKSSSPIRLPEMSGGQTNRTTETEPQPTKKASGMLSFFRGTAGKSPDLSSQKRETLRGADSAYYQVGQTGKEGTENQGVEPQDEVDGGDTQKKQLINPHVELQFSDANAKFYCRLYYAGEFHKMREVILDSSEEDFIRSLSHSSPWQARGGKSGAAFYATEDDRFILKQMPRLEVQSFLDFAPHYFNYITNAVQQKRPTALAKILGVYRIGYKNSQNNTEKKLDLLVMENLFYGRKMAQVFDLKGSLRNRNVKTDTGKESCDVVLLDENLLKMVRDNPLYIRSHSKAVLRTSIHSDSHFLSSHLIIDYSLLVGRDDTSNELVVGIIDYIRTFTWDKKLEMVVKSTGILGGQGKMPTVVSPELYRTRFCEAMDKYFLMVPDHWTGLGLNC

c1ccc(-c2c[nH]c3c(-c4ccncc4)nc(N4CCOCC4)nc23)cc1 [US20250145642, Compound 135]
IC50: < 10 nM
